{"source": "paper PMC10302868", "about": "(Molecules, 2023)", "key": {"[1]": {"test_system": "S. pyogenes SPY-0253", "test": "MIC determination", "assay_type": "cell-based", "conditions": "Streptococcus pyogenes, SPY0253"}, "[2]": {"test_system": "K. pneumoniae ATCC BAA-1705", "test": "MIC determination", "assay_type": "cell-based", "conditions": "Klebsiella pneumoniae, ATCCBAA1705"}, "[3]": {"test": "in vivo", "conditions": "male, Sprague-Dawley, rat"}, "[4]": {"test_system": "MDR1-MDCK", "conditions": "cited from earlier work"}, "[5]": {"test_system": "M. abscessus-C28", "test": "MIC determination (Microplate Alamar Blue Assay)", "assay_type": "cell-based, Mycobacterium abscessus", "conditions": "Mycobacteroides abscessus, 72 h"}, "[6]": {"conditions": "human"}, "[7]": {"test_system": "E. coli ATCC 25922", "test": "MIC determination", "assay_type": "cell-based", "conditions": "Escherichia coli, ATCC25922"}, "[8]": {"test_system": "S. aureus ATCC 700698 (MRSA)", "test": "MIC determination", "assay_type": "cell-based", "conditions": "Staphylococcus aureus"}, "[9]": {"test_system": "A. baumannii ATCC 17978", "test": "MIC determination", "assay_type": "cell-based", "conditions": "Acinetobacter baumannii, ATCC17978"}, "[10]": {"test_system": "M. bovis BCG (Pasteur 1173P2)", "test": "microbe, parasite or virus in culture", "assay_type": "cell-based", "conditions": "Mycobacterium tuberculosis variant bovis BCG, 168 h"}, "[11]": {"test": "in vitro", "assay_type": "in vitro ADME", "conditions": "microsomes", "description": "Microsomes from humans and rats were purchased from Corning (Shanghai, China) and Xenotech (Kansas City, KS, USA), respectively. The working solution of liver microsomes was prepared in 100 mM phosphate buffer at 0.56 mg/mL. The quench solution was cold (4 °C) acetonitrile (ACN) containing 200 ng/mL Verapamil and 200 ng/mL Imipramine as internal standards (IS). An amount of 445 µL of the microsomal working solution was transferred into the pre-warmed plates T120 (incubate time: 120 min) and NCF 120 (no co-factor NADPH regenerating system), then the plates were incubated at 37 °C for 10 min with constant shaking. An amount of 54 µL of the liver microsomes was transferred into a blank plate, and 6 µL NADPH and 180 µL quenching solution were added to the blank plate. The microsomal working solution (0.56 mg/mL) and the compound working solution (100 µM) were mixed 3 times thoroughly and 54 µL was immediately removed for the 0 min point. Then 44 µL NADPH cofactor was added to the incubation plate, and shaken at 37 °C for 120 min. At 15, 30, 60, 90, and 120 min, a 60 µL sample was transferred to the quenching solution and centrifuged at 4000 rpm for 20 min at 4 °C [6]. Then, 80 µL supernatant was transferred to the HPLC water and shaken for 10 min before LC-MS/MS analysis."}, "[12]": {"test_system": "Wolbachia-infected C6/36 cells (wAlb)", "conditions": "cited from earlier work"}, "[13]": {"test_system": "M. abscessus-C58", "test": "MIC determination (Microplate Alamar Blue Assay)", "assay_type": "cell-based, Mycobacterium abscessus", "conditions": "Mycobacteroides abscessus; M. abscessus-C58, 72 h"}, "[14]": {"test_system": "S. epidermidis SEP-1024", "test": "MIC determination", "assay_type": "cell-based", "conditions": "Staphylococcus epidermidis, SEP1024"}, "[15]": {"test_system": "H. influenzae ATCC 49247", "test": "MIC determination", "assay_type": "cell-based", "conditions": "Haemophilus influenzae, ATCC49247"}, "[16]": {"test": "in vitro", "assay_type": "in vitro ADME", "conditions": "hepatocytes", "description": "Cryopreserved hepatocytes from male SD rats and humans were both purchased from Bioreclamation-IVT. The human cryopreserved hepatocytes were pooled from 10 human donors with a viability of 77.9% tested by trypan blue. The rats’ cryopreserved hepatocytes were pooled from 12 male SD (Sprague Dawley) rats, and the cell viability was 80.9%. The hepatocytes were diluted to 0.5 × 10^6/mL cell suspension with pre-warmed incubation medium ([…]). […] At 15, 30, 60, and 90 min, the samples were mixed and then 25 μL of each sample was transferred at each time point to a well containing 125 μL of ice-cold stop solution (acetonitrile containing 200 ng/mL tolbutamide and labetalol as internal standards) followed by mixing. The samples were vortexed on a plate shaker at 500 rpm for 10 min, and centrifuged at 3220× g for 20 min at 4 °C. The supernatants were transferred to ultra-pure water and analyzed by LC-MS/MS. […] CLint (hep) = k/million cells per mL CLint (liver) = CLint (hep) × liver weight (g/kg body weight) × hepatocellularity"}, "[17]": {"test_system": "Wolbachia-infected LDW1 cells (wMel)", "conditions": "cited from earlier work"}, "[18]": {"test": "in vitro", "conditions": "African green monkey"}, "[19]": {"test_system": "S. aureus SAU-9922 (MRSA)", "test": "MIC determination", "assay_type": "cell-based", "conditions": "Staphylococcus aureus"}, "[20]": {"test_system": "E. faecium EFA-0221 (VRE)", "test": "MIC determination", "assay_type": "cell-based", "conditions": "Enterococcus faecium"}, "[21]": {"test_system": "S. aureus SAU-0167 (MRSA)", "test": "MIC determination", "assay_type": "cell-based", "conditions": "Staphylococcus aureus"}, "[22]": {"test_system": "M. abscessus-GDI", "test": "MIC determination (Microplate Alamar Blue Assay)", "assay_type": "cell-based, Mycobacterium abscessus", "conditions": "Mycobacteroides abscessus, 72 h"}, "[23]": {"test_system": "S. pneumoniae SPN-1169", "test": "MIC determination", "assay_type": "cell-based", "conditions": "Streptococcus pneumoniae, SPN1169"}, "[24]": {"test": "physchem"}, "[25]": {"test_system": "M. abscessus-C16", "test": "MIC determination (Microplate Alamar Blue Assay)", "assay_type": "cell-based, Mycobacterium abscessus", "conditions": "Mycobacteroides abscessus; M. abscessus-C16, 72 h"}}, "note": "Read-outs that look alike come from different tables or passages of the source.", "data": [{"smiles": "C=C[C@]1(C)C[C@@H](OC(=O)COc2ccc3c(c2F)B(O)OC3)[C@]2(C)[C@H](C)CC[C@]3(CCC(=O)[C@H]32)[C@@H](C)[C@@H]1O", "note": "[AN11251]", "values": [{"measurement": "MIC", "setting": "[1]", "value": 0.063, "unit": "µg/mL"}, {"measurement": "MIC", "setting": "[2]", "value": "> 32", "unit": "µg/mL"}, {"measurement": "bioavailability", "setting": "[3]", "value": 19.2, "unit": "%"}, {"measurement": "Tmax", "setting": "[3]; iv, 3 mg/kg", "value": 0, "unit": "h"}, {"measurement": "Vd", "setting": "[3]; iv, 3 mg/kg", "value": 1.44, "unit": "L/kg"}, {"measurement": "clearance", "setting": "[3]; iv, 3 mg/kg", "value": 19.8, "unit": "mL/min/kg"}, {"measurement": "half-life", "setting": "[3]; iv, 3 mg/kg", "value": 1.75, "unit": "h"}, {"measurement": "MRT", "setting": "[3]; iv, 3 mg/kg", "value": 1.22, "unit": "h"}, {"measurement": "half-life", "setting": "[3]; po, 10 mg/kg", "value": 2.39, "unit": "h"}, {"measurement": "MRT", "setting": "[3]; po, 10 mg/kg", "value": 2.26, "unit": "h"}, {"measurement": "apparent permeability (Papp)", "setting": "[4]", "value": 14.1, "unit": "×10⁻⁶ cm/s"}, {"measurement": "MIC", "setting": "[5]", "value": "> 20", "unit": "µg/mL"}, {"measurement": "half-life", "setting": "[6]", "value": 4.2, "unit": "h"}, {"measurement": "MIC", "setting": "[7]", "value": "> 32", "unit": "µg/mL"}, {"measurement": "MIC", "setting": "[8]", "value": "< 0.039", "unit": "µg/mL"}, {"measurement": "MIC", "setting": "[9]", "value": 20, "unit": "µg/mL"}, {"measurement": "MIC", "setting": "[10]", "value": 2.5, "unit": "µg/mL"}, {"measurement": "CLint scaled", "setting": "[11]; human", "value": 300, "unit": "mL/min/kg"}, {"measurement": "CLint scaled", "setting": "[11]; rat", "value": 333, "unit": "mL/min/kg"}, {"measurement": "EC50", "setting": "[12]", "value": 0.00792, "unit": "µg/mL"}, {"measurement": "MIC", "setting": "[13]", "value": "> 20", "unit": "µg/mL"}, {"measurement": "MIC", "setting": "[14]", "value": 0.063, "unit": "µg/mL"}, {"measurement": "MIC", "setting": "[15]", "value": 2, "unit": "µg/mL"}, {"measurement": "CLint scaled at 20 µg/mL", "setting": "[16]; human", "value": 180, "unit": "mL/min/kg"}, {"measurement": "hepatocyte CLint at 20 µg/mL", "setting": "[16]; human", "value": 64.8, "unit": "µL/min/1e6 cells"}, {"measurement": "CLint scaled at 20 µg/mL", "setting": "[16]; male, Sprague-Dawley, rat", "value": 876, "unit": "mL/min/kg"}, {"measurement": "EC50", "setting": "[17]", "value": 0.000792, "unit": "µg/mL"}, {"measurement": "CC50", "setting": "[18]", "value": 27, "unit": "µg/mL"}, {"measurement": "MIC", "setting": "[19]", "value": 0.063, "unit": "µg/mL"}, {"measurement": "MIC", "setting": "[20]", "value": 0.125, "unit": "µg/mL"}, {"measurement": "MIC", "setting": "[21]", "value": 0.063, "unit": "µg/mL"}, {"measurement": "MIC", "setting": "[22]", "value": "> 20", "unit": "µg/mL"}, {"measurement": "MIC", "setting": "[23]", "value": 0.5, "unit": "µg/mL"}, {"measurement": "logP", "setting": "[24]", "value": 4.5}, {"measurement": "MIC", "setting": "[25]", "value": "> 20", "unit": "µg/mL"}]}]}
